From the NIST ThermoML archive (doi:10.1016/j.fluid.2010.01.019)
Numbers after ± are expanded uncertainties.

Details: Liquid, Vibrating tube method

CCCCC(=O)OCC(COCC(COC(=O)CCCC)(COC(=O)CCCC)COC(=O)CCCC)(COC(=O)CCCC)COC(=O)CCCC
mass density [kg/m3]
Details	100 kPa	1000 kPa	5000 kPa	10000 kPa	20000 kPa	30000 kPa	40000 kPa	50000 kPa	60000 kPa	70000 kPa
283.15 K	1045 ± 5.9	1045.5 ± 5.9	1047.7 ± 5.9	1050.4 ± 6	1055.8 ± 6.1	1060.9 ± 6.2	1065.8 ± 6.3	1070.5 ± 6.3	1075 ± 6.4	1079.3 ± 6.5
298.15 K	1033.7 ± 5.8	1034.2 ± 5.8	1036.7 ± 5.8	1039.7 ± 5.9	1045.4 ± 5.9	1050.7 ± 6	1055.9 ± 6.1	1060.8 ± 6.2	1065.5 ± 6.3	1070 ± 6.4
323.15 K	1014.6 ± 5.6	1015.2 ± 5.6	1018 ± 5.6	1021.3 ± 5.6	1027.6 ± 5.7	1033.5 ± 5.8	1039 ± 5.9	1044.4 ± 6	1049.5 ± 6.1	1054.3 ± 6.2
333.15 K	1007 ± 5.5	1007.7 ± 5.5	1010.6 ± 5.5	1014 ± 5.6	1020.6 ± 5.6	1026.7 ± 5.7	1032.4 ± 5.8	1037.9 ± 5.9	1043.2 ± 6	1048.2 ± 6.1
348.15 K	995.5 ± 5.3	996.3 ± 5.4	999.4 ± 5.4	1003.1 ± 5.4	1010 ± 5.5	1016.4 ± 5.6	1022.5 ± 5.7	1028.3 ± 5.8	1033.8 ± 5.9	1039.1 ± 5.9
373.15 K	975.7 ± 11	977.3 ± 7.6	980.8 ± 7.7	984.9 ± 7.7	992.5 ± 7.7	999.6 ± 7.8	1006.2 ± 7.8	1012.5 ± 7.9	1018.4 ± 7.9	1024 ± 8
398.15 K	957 ± 11	957.8 ± 7.5	961.4 ± 7.5	965.9 ± 7.6	974.4 ± 7.6	982.1 ± 7.7	989.3 ± 7.7	996.1 ± 7.7	1002.4 ± 7.8	1008.4 ± 7.8

CCCCCCC(=O)OCC(COCC(COC(=O)CCCCCC)(COC(=O)CCCCCC)COC(=O)CCCCCC)(COC(=O)CCCCCC)COC(=O)CCCCCC [dipentaerythritol hexaheptanoate]
mass density [kg/m3]
Details	100 kPa	1000 kPa	5000 kPa	10000 kPa	20000 kPa	30000 kPa	40000 kPa	50000 kPa	60000 kPa	70000 kPa
283.15 K	1000.3 ± 5.4	1000.9 ± 5.4	1003.2 ± 5.4	1005.9 ± 5.5	1011.2 ± 5.5	1016.1 ± 5.6	1020.8 ± 5.7	1025.4 ± 5.7	1029.9 ± 5.8	1034.2 ± 5.9
298.15 K	989.7 ± 5.3	990.3 ± 5.3	992.8 ± 5.3	995.7 ± 5.4	1001.3 ± 5.4	1006.4 ± 5.5	1011.3 ± 5.5	1016.1 ± 5.6	1020.7 ± 5.7	1025.2 ± 5.7
323.15 K	971.7 ± 5.1	972.2 ± 5.1	974.9 ± 5.1	978.2 ± 5.2	984.4 ± 5.2	990.1 ± 5.3	995.5 ± 5.4	1000.6 ± 5.4	1005.6 ± 5.5	1010.3 ± 5.5
333.15 K	964.4 ± 5	965.1 ± 5	967.9 ± 5.1	971.3 ± 5.1	977.8 ± 5.2	983.7 ± 5.2	989.3 ± 5.3	994.6 ± 5.4	999.7 ± 5.4	1004.6 ± 5.5
348.15 K	953.7 ± 4.9	954.4 ± 4.9	957.4 ± 5	961 ± 5	967.8 ± 5.1	974.1 ± 5.2	980 ± 5.2	985.6 ± 5.3	990.9 ± 5.3	996 ± 5.4
373.15 K	935 ± 11	936.6 ± 7.4	939.9 ± 7.4	943.9 ± 7.5	951.4 ± 7.5	958.3 ± 7.6	964.7 ± 7.6	970.8 ± 7.6	976.5 ± 7.7	981.9 ± 7.7
398.15 K	917.4 ± 11	918.2 ± 7.3	921.7 ± 7.3	926.1 ± 7.4	934.4 ± 7.4	941.9 ± 7.5	948.9 ± 7.5	955.5 ± 7.6	961.6 ± 7.6	967.3 ± 7.6
